SMILES strings stand for the structures. Where a name gives a salt, the structure may show the parent alone. Read-outs that look alike come from different tables or passages of the source.

Series [1] concerns the target T1, phosphorylated VEGF-R2Δ50 (FLVK-P) (Homo sapiens, UniProt P35968, DEL940-989/E990V).
T1 construct: VEGF-R2Δ50 contains residues 806-939 and 990-1171; made in house; host or cells: baculovirus/insect cells
The series is described as follows: VEGF-R2 coupled spectrophotometric assay, phosphorylated construct (FLVK-P). It counts as biochemical. The note with it: for inhibition at 0.05 µM: @ 50 nM, read-out: FLVK-P percent inhibition. In a few lines: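 Continuous PK/LDH-coupled spectrophotometric read (NADH loss at 340 nm) with 5–40 nM enzyme in 200 mM Hepes pH 7.5. Phosphorylated construct run at 1 mM ATP, 25 mM MgCl2, 5.1 mM poly(E4Y1); unphosphorylated at 3 mM ATP, 60 mM MgCl2 plus 2 mM MnCl2, 20 mM poly(E4Y1). Ki values derived from varied inhibitor concentrations.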

Series [2] has as its target T2, unphosphorylated VEGF-R2Δ50 (FLVK) (Homo sapiens, UniProt P35968, DEL940-989/E990V).
T2 construct: VEGF-R2Δ50 contains residues 806-939 and 990-1171; made in house; host or cells: baculovirus/insect cells
The series is described as follows: VEGF-R2 coupled spectrophotometric assay, unphosphorylated construct (FLVK).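 Note: Baculovirus-expressed cytosolic kinase domain, ADP formation linked via pyruvate kinase and lactate dehydrogenase to NADH oxidation, read as falling absorbance at 340 nm.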 It counts as biochemical.
Procedure: A construct (VEGF-R2Δ50) of the cytosolic domain of human vascular endothelial growth factor receptor 2 (VEGF-R2) lacking the 50 central residues of the 68 residues of the kinase insert domain was expressed in a baculovirus/insect cell system. […] Autophosphorylation of the purified construct was performed by incubation of the enzyme at a concentration of 4 μM in the presence of 3 mM ATP and 40 mM MgCl2 in 100 mM Hepes, pH 7.5, containing 5% glycerol and 5 mM DTT, at 4° C. for 2 h.
(§1) The production of ADP from ATP that accompanies phosphoryl transfer was coupled to oxidation of NADH using phosphoenolpyruvate (PEP) and a system having pyruvate kinase (PK) and lactic dehydrogenase (LDH). The oxidation of NADH was monitored by following the decrease of absorbance at 340 nm (e340=6.22 cm^−1 mM^−1) using a Beckman DU 650 spectrophotometer. Assay conditions for phosphorylated VEGF-R2Δ50 (indicated as FLVK-P in the tables below) were the following: 1 mM PEP; 250 μM NADH; 50 units of LDH/mL; 20 units of PK/mL; 5 mM DTT; 5.1 mM poly(E4Y1); 1 mM ATP; and 25 mM MgCl2 in 200 mM Hepes, pH 7.5. Assay conditions for unphosphorylated VEGF-R2Δ50 (indicated as FLVK in the tables) were the following: 1 mM PEP; 250 μM NADH; 50 units of LDH/mL; 20 units of PK/mL; 5 mM DTT; 20 mM poly(E4Y1); 3 mM ATP; and 60 mM MgCl2 and 2 mM MnCl2 in 200 mM Hepes, pH 7.5. Assays were initiated with 5 to 40 nM of enzyme. Ki values were determined by measuring enzyme activity in the presence of varying concentrations of test compounds. The data were analyzed using Enzyme Kinetic and Kaleidagraph software.

For series [3], the system named is human umbilical vein endothelial cells (HUVEC). The experiment in a line: HUVEC proliferation assay (VEGF-stimulated, MTT). It counts as cell-based. Conditions: Homo sapiens, read-out: HUVEC IC50. On the procedure:
This assay determines the ability of a test compound to inhibit the growth factor-stimulated proliferation of human umbilical vein endothelial cells (“HUVEC”). HUVEC cells (passage 3-4, Clonetics, Corp.) were thawed into EGM2 culture medium (Clonetics Corp) in T75 flasks. Fresh EGM2 medium was added to the flasks 24 hours later. Four or five days later, cells were exposed to another culture medium (F12K medium supplemented with 10% fetal bovine serum (FBS), 60 μg/ml endothelial cell growth supplement (ECGS), and 0.1 mg/ml heparin). Exponentially-growing HUVEC cells were used in experiments thereafter. Ten to twelve thousand HUVEC cells were plated in 96-well dishes in 100 μl of rich, culture medium (described above). The cells were allowed to attach for 24 hours in this medium. The medium was then removed by aspiration and 105 μl of starvation media (F12K+1% FBS) was added to each well. After 24 hours, 15 μl of test agent dissolved in 1% DMSO in starvation medium or this vehicle alone was added into each treatment well; the final DMSO concentration was 0.1%. One hour later, 30 μl of VEGF (30 ng/ml) in starvation media was added to all wells except those containing untreated controls; the final VEGF concentration was 6 ng/ml. Cellular proliferation was quantified 72 hours later by MTT dye reduction, at which time cells were exposed for 4 hours MTT (Promega Corp.). Dye reduction was stopped by addition of a stop solution (Promega Corp.) and absorbance at 595 λ was determined on a 96-well spectrophotometer plate reader.

In series [4] the test system is lung cancer cells (line MV522). The series is described as follows: Cancer cell proliferation (MV522) assay (MTT). It counts as cell-based. The note with it: MV522. The procedure:
The protocol for assessing cellular proliferation in cancer cells is similar to that used for assessments in HUVEC cells. Two thousand lung cancer cells (line MV522, acquired from American Tissue Cultural Collection) were seeded in growth media (RPMI1640 medium supplemented with 2 mM glutamine and 10% FBS). Cells are allowed to attach for 1 day prior to addition of test agents and/or vehicles. Cells are treated simultaneously with the same test agents used in the HUVEC assay. Cellular proliferation is quantified by MTT dye reduction assay 72 hours after exposure to test agents. The total length of the assay is 4 days vs. 5 for HUVEC cells because MV522 cells are not exposed to starvation medium.

Another series addresses T3, LCK tyrosine kinase (Homo sapiens, UniProt P06239, C224D/P223M).
T3 construct: starting from amino acid residue 223 to the end of the protein at residue 509; made in house; host or cells: insect cells
The series is described as follows: LCK spectrophotometric assay.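 Note: recombinant LCK kinase activity on poly(E4Y1), ADP formation coupled through PK/LDH to NADH oxidation, followed as absorbance loss at 340 nm.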 It counts as biochemical. The note with it: @ 1 μM; read-out: LCK-P percent inhibition.

T1 sequence (P35968 with tags, fused parts or gaps DEL940-989/E990V limits assumed): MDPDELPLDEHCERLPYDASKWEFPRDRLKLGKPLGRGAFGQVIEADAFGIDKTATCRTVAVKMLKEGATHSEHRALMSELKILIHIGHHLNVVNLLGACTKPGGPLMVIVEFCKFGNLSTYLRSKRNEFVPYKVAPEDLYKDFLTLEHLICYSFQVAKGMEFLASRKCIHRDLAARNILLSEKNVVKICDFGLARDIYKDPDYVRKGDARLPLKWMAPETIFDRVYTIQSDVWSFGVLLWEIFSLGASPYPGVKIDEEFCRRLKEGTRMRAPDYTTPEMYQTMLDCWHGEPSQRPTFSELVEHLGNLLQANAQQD
T2 sequence (P35968 with tags, fused parts or gaps DEL940-989/E990V limits assumed): as above
T3 sequence (P06239 223-509 P223M/C224D): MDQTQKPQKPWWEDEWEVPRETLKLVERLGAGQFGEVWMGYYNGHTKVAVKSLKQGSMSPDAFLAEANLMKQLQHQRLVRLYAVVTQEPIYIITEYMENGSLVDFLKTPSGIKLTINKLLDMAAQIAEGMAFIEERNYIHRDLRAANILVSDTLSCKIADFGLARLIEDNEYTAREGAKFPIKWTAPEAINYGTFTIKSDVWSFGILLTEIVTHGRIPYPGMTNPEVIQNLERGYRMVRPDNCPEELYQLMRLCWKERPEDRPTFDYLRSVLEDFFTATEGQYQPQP
Procedure for LCK tyrosine kinase: as §1

In general, melting point refers to the temperature of the solid-liquid transition. In the case of `O=C(Nc1ccc(N2CCNCC2)c(C(F)(F)F)c1)c1ccc(F)c(OCc2cncc3ccccc23)c1` (as salt: hydrochloride) [Example R-15, 4-Fluoro-N-(4-piperazin-1-yl-3-trifluoromethyl-phenyl)-3-(isoquinolin-4-ylmethoxy)-benzamide], the melting point lay within 103 to 107 °C.
`O=C(Nc1ccc(N2CCNCC2)c(C(F)(F)F)c1)c1ccc(F)c(OCc2cnc3ccccc3c2)c1` (as salt: hydrochloride) [Example R-17, 4-Fluoro-N-(4-piperazin-1-yl-3-trifluoromethyl-phenyl)-3-(quinolin-3-ylmethoxy)-benzamide] displayed a melting point of 76 to 78 °C.
As to `O=C(Nc1cccc(OCc2cccnc2)c1)N1CCOCC1` (as salt: salt) [Example Y-2, 4-[3-(pyridin-3-ylmethoxy)phenylcarbamoyl]morpholine], the melting point lay in the range of 58 to 62 °C.
For orientation: Ki means a measure of affinity in units of concentration, obtained from inhibition or displacement. Lower therefore signals tighter binding. `COc1cc(NC(=O)c2cccc(CSc3cnccn3)c2)cc(OC)c1OC` [Example A-1, N-(3,4,5-Trimethoxyphenyl)-3-[(pyrazin-2-yl)sulfanylmethyl]benzamide] had a melting point of 112 to 119 °C. This compound also registered a Ki in series [1] of 785 nM.
The corresponding values for `Cc1ccc2cc(NC(=O)c3cccc(CSc4cnccn4)c3)ccc2n1` [Example A-6, N-(2-Methylquinolin-6-yl)-3-[(pyrazin-2-yl)sulfanylmethyl]benzamide] are 133 to 135 °C and 1050 nM.
Broadly, the IC50 is the point on the concentration scale where inhibition reaches its midpoint. `Cc1c(Br)cc(NC(=O)c2cccc(CSc3cnccn3)c2)cc1Br` [Example A-8, N-(3,5-Dibromo-4-methylphenyl)-3-[(pyrazin-2-yl)sulfanylmethyl]benzamide]: the values for the Ki in series [1] and in series [2] were 3.36 nM and 1.9 nM, respectively. The concentration for half-maximal inhibition (IC50) was 740 nM in series [3] (HUVEC) and > 10000 nM in series [4].
As for `O=C(Nc1ccc2ncccc2c1)c1cccc(CSc2ncnc3[nH]ncc23)c1` [Example B-3, N-(Quinolin-6-yl)-3-[(1H-pyrazolo[3,4-d]pyrimidin-4-yl)sulfanylmethyl]benzamide], the melting point was 236 to 240 °C (dec.). Besides, the Ki in series [1] came to 406 nM.
For orientation: inhibition means the change of the read-out against control, counted positive when it falls. The compound `COc1cc(NC(=O)c2cccc(CSc3ncnc4[nH]ncc34)c2)cc(C(F)(F)F)c1` [Example B-16, 3-[(1H-Pyrazolo[3,4-d]pyrimidin-4-yl)sulfanylmethyl]-N(3-trifluoromethyl-5-methoxyphenyl)-benzamide] gave a Ki in series [1] of 15 nM. On LCK tyrosine kinase, the inhibition at 1 µM was 9%. For the same compound, the IC50 in series [3] (HUVEC) was 370 nM; in series [4], > 10000 nM.
On to `COc1cc(NC(=O)c2cccc(CSc3nc(NC#N)n[nH]3)c2)cc(OC)c1OC` [Example C-1, 3-[(5-Cyanoamino-2H-[1,2,4]triazol-3-yl)sulfanylmethyl]-N-(3,4,5-trimethoxyphenyl)benzamide], for which the melting point is > 165 °C (dec.).
The same measure, in the same setting: the value for `COC(=O)Nc1n[nH]c(SCc2cccc(C(=O)Nc3cc(OC)c(OC)c(OC)c3)c2)n1` [Example C-2, 3-[(5-(Methoxycarbonylamino)-2H-[1,2,4]triazol-3-yl)sulfanylmethyl]-N-(3,4,5-Trimethoxyphenyl)benzamide] was > 150 °C (dec.); that for `COc1cc(NC(=O)c2cccc(CSc3nc(NC(C)=O)n[nH]3)c2)cc(OC)c1OC` [Example C-3, N-(3,4,5-Trimethoxyphenyl)-3-[(5-acetylamino-2H-[1,2,4]triazol-3-yl)sulfanylmethyl]benzamide] was 196 to 201 °C.
On to `Cc1ccc2cc(NC(=O)c3cccc(SCc4cnccn4)c3)ccc2n1` [Example D-2, N-(2-Methylquinolin-6-yl)-3-[(pyrazin-2-yl)methylsulfanyl]benzamide], for which the melting point was 102 to 105 °C. The affinity in series [1] corresponds to a Ki of 1640 nM.
`Cc1ccc2cc(NC(=O)c3cccc(SCc4cc(-c5ccccc5)n[nH]4)c3)ccc2n1` [Example F-2] showed a melting point of 99 to 101 °C. Besides, the affinity in series [1] corresponds to a Ki of 14.7 nM. Also, the IC50 in series [3] (HUVEC) is 650 nM. Further, the IC50 in series [4] is > 10000 nM.
The corresponding values for `Cc1ccc2cc(NC(=O)c3cccc(CCc4cc(Nc5ccccc5)n[nH]4)c3)ccc2n1` [Example G-2, N-(2-Methylquinolin-6-yl)-3-[2-(5-phenylamino-2H-pyrazol-3-yl)ethyl]benzamide] are 98 to 102 °C, 1.78 nM, 120 nM and > 10000 nM.
Compound `Cc1cc(NC(=O)c2cccc(OCc3ccc(N)nc3)c2)ccc1C(C)C` [Example L-1, 3-(6-Aminopyridin-3-yl)methoxy-N-(4-Isopropyl-3-methyl-phenyl)-benzamide] returned a melting point of 78 to 81 °C.
Compound `Cc1ccc2cc(NC(=O)c3cccc(OCc4ccc(N)nc4)c3)ccc2n1` [Example M-1, 3-(6-Aminopyridin-3-yl)methoxy-N-(2-methyl-quinolin-6-yl)-benzamide] gave a melting point of 189 to 192 °C. For the same compound, in series [1], the Ki was 52 nM.
Compound `Cc1cc(NC(=O)c2cccc(OCc3cnc(NNC(=O)OC(C)(C)C)c4ccccc34)c2)ccc1C(C)C` [Example P-1, N′-{4-[3-(4-isopropyl-3-methyl-phenylcarbamoyl)-phenoxymethyl]-isoquinolin-1-yl}-hydrazinecarboxylic acid tert-butyl ester] yielded a melting point of 125 to 129 °C. Besides, the inhibition at 0.05 µM in series [1] was found to be 4%.
`COc1cccc(/C=N/Nc2ncc(COc3cccc(C(=O)Nc4ccc(C(C)C)c(C)c4)c3)c3ccccc23)c1` [Example Q-1, N-(4-Isopropyl-3-methyl-phenyl)-3-{1-[N′-(3-methoxy-benzylidene)-hydrazino]-isoquinolin-4-ylmethoxy}-benzamide] gave a melting point of 125 to 131 °C. Further, the inhibition at 0.05 µM in series [1] was 17%. Further, in series [3] (HUVEC), the half-maximal inhibitory concentration (IC50) was 100 to 300 nM.
`O=C(Nc1cccc(OC(F)(F)F)c1)c1cccc(OCc2cncc3ccccc23)c1` [Example R-4, 3-(Isoquinolin-4-ylmethoxy)-N-(3-trifluoromethoxy-phenyl)-benzamide]: the Ki was found to be 9.93 nM in series [1] and 2.4 nM in series [2]. In addition, the inhibition at 1 µM at LCK tyrosine kinase was 28%. Besides, the IC50 in series [3] (HUVEC) came out at 88 nM; in series [4], 9900 nM.
As for `Cc1cc(C)c2cc(NC(=O)c3cccc(OCc4cncc5ccccc45)c3)ccc2n1` [Example R-5, N-(2,4-Dimethylquinolin-6-yl)-3-(isoquinolin-4-ylmethoxy)-benzamide], the Ki in series [1] stood at 11.2 nM; in series [2], 1.7 nM. The IC50 in series [3] (HUVEC) worked out at 89 nM; in series [4], 10000 nM.
As for `CC1(C)OC(C)(C)c2cc(NC(=O)c3cccc(OCc4cncc5ccccc45)c3)ccc21` [Example R-10, 3-(Isoquinolin-4-ylmethoxy)-N-(1,1,3,3-tetramethyl-1,3-dihydroisobenzofuran-5-yl)-benzamide], the Ki is 12.1 nM in series [1] and 6.9 nM in series [2]. The inhibition at 1 µM at LCK tyrosine kinase is 23%. In addition, the IC50 in series [3] (HUVEC) was 28 nM; in series [4], > 10000 nM.
For the compound `CC(=O)Oc1ccc(C(=O)Nc2cccc(OCc3cccnc3)c2)cc1C(C)(C)C` [Example X-2, 4-Acetoxy-3-t-butyl-N-[3-(pyridin-3-ylmethoxy)phenyl]-benzamide], the melting point is 58 to 62 °C. The compound also yielded a Ki in series [2] (unphosphorylated VEGF-R2 construct) of 9.1 nM.
In turn, `O=C(Nc1cccc(OCc2cccnc2)c1)N1CCCC1` [Example Y-1, 1-[3-(pyridin-3-ylmethoxy)phenylcarbamoyl]pyrrolidine] showed a melting point of 138 to 140 °C. In series [2] (@ 50 nM, read-out: FLVK percent inhibition), the inhibition at 0.05 µM amounted to 6%. The IC50 in series [3] (VEGF-stimulated HUVEC proliferation) was > 700 nM.
